Results from patent US9951014B2, “Mammalian and bacterial nitric oxide synthase inhibitors” (Northwestern University, priority 2014, dated 2018).
Like-named read-outs stand apart in the source and are kept apart here.

Key:
[1] = target: murine iNOS (Mus musculus (Mouse), UniProt P29477); assay: Oxyhemoglobin NO capture assay with purified NOS; type: biochemical
Experimental: (§1) The oxyhemoglobin NO assays were performed with purified NOSs using a Biotek Gen5™ microplate reader as previously reported. […] For iNOS, calmodulin and CaCl2 were omitted because iNOS is calcium independent. […] The calculated standard deviations of the assays were less than 10% with all NOSs. […] The selectivity of antagonism of nNOS was determined by calculating the ratios of the Ki values with iNOS or eNOS to those with rat nNOS.

[2] = target: rat nNOS (Rattus norvegicus (Rat), UniProt P29476); assay: Oxyhemoglobin NO capture assay with purified NOS; type: biochemical
Experimental: as §1

[3] = target: bovine eNOS (Bos taurus (Bovine), UniProt P29473); assay: Oxyhemoglobin NO capture assay with purified NOS; type: biochemical
Experimental: as §1

[4] = target: bsNOS (Bacillus subtilis (strain 168), UniProt O34453); assay: Imidazole displacement, spectral binding constant KS
[5] = Plasma pharmacokinetics and brain distribution in mice; type: in vivo, male BALB/c mice; details: for C0: back extrapolated conc.; for clearance / half-life: 2 mg/kg; for Vd: read-out: Vss
Experimental: Pharmacokinetic study. A group of forty-eight male mice were divided into two groups: Group 1 (2 mg/kg; i.v.) and Group 2 (10 mg/kg; p.o.) with each group comprising twenty-four mice. […] The blood samples were collected from a set of three mice at each time point in labeled micro centrifuge tubes containing K2EDTA as anticoagulant. Plasma samples were separated by centrifugation of whole blood and stored below −70° C. until bioanalysis. […] Tissue samples were homogenized using ice-cold phosphate buffer saline (pH 7.4) and homogenates were stored below −70° C. until analyzed. The total homogenate volume was three times that of the tissue weight. […] Specific LC-MS/MS and MRM conditions are described below. Pharmacokinetic parameters were calculated using the non-compartmental analysis tool of Phoenix WinNonlin (Version 6.3).

[6] = ratio Ki iNOS / Ki nNOS, Table 13
[7] = ratio Ki eNOS / Ki nNOS, Table 13
[8] = male, BALB/c, mouse, brain, iv, i.v. 2 mg/kg
[9] = male, BALB/c, mouse, iv, i.v. 2 mg/kg, plasma
[10] = male, BALB/c, mouse, plasma, iv, i.v. 2 mg/kg
[11] = male, BALB/c, mouse, po, p.o. 10 mg/kg, plasma
[12] = ratio Ki iNOS / Ki rat nNOS, Table 9
[13] = ratio Ki eNOS / Ki rat nNOS, Table 9

Sequence of bsNOS (O34453 whole entry): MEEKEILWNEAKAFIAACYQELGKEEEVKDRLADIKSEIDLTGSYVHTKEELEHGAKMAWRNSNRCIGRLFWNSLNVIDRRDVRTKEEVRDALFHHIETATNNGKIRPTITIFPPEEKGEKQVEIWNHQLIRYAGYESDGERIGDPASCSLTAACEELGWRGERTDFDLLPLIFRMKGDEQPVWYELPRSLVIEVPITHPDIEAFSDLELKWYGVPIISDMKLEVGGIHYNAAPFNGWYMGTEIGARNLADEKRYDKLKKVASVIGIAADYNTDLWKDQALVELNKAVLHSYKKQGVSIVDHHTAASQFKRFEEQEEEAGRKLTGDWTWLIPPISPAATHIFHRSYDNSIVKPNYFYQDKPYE

## Cc1cc(N)nc(CCc2cccc([C@H](N)Cc3cc(C)cc(N)n3)c2)c1 [Compound 3R, (R)-6-(2-Amino-2-(3-(2-(6-amino-4-methylpyridin-2-yl)ethyl)phenyl)ethyl)-4-methylpyridin-2-amine]
[1]; Table 13, read-out: iNOS Ki
  Ki: 15.6 µM
[2]; Table 13, read-out: nNOS Ki
  Ki: 122 nM

## Cc1cc(N)nc(CCc2cccc([C@@H](N)Cc3cc(C)cc(N)n3)c2)c1 [Compound 3S, (S)-6-(2-Amino-2-(3-(2-(6-amino-4-methylpyridin-2-yl)ethyl)phenyl)ethyl)-4-methylpyridin-2-amine]
[1]; Table 13, read-out: iNOS Ki
  Ki: 17.7 µM
[2]; Table 13, read-out: nNOS Ki
  Ki: 144 nM

## Cc1ccnc(CCc2cccc([C@H](N)Cc3cc(C)cc(N)n3)c2)c1 [Compound 5R, (R)-6-(2-Amino-2-(3-(2-(4-methylpyridin-2-yl)ethyl)phenyl)ethyl)-4-methylpyridin-2-amine]
[1]; Table 13, read-out: iNOS Ki
  Ki: > 100 µM
[1]; [6]
  i/n selectivity: >22
[3]; [7]
  e/n selectivity: 240
[2]; Table 13, read-out: nNOS Ki
  Ki: 4370 nM

## Cc1ccnc(CCc2cccc([C@@H](N)Cc3cc(C)cc(N)n3)c2)c1 [Compound 5S, (S)-6-(2-Amino-2-(3-(2-(4-methylpyridin-2-yl)ethyl)phenyl)ethyl)-4-methylpyridin-2-amine]
[1]; Table 13, read-out: iNOS Ki
  Ki: > 100 µM
[1]; [6]
  i/n selectivity: >110
[3]; Table 13, read-out: eNOS Ki
  Ki: 328 µM
[3]; [7]
  e/n selectivity: 363
[2]; Table 13, read-out: nNOS Ki
  Ki: 903 nM

## Cc1cc(N)nc(CCc2cccc(C(O)Cc3cc(C)cc(N)n3)c2)c1 (centres unmarked) [Compound 10]
[4]; KS bsNOS, imidazole displacement, Tables 1 and 4
  Kd: 1.89 µM

## Cc1cc(N)nc(COC[C@H](N)[C@H](C)OCc2cc(C)cc(N)n2)c1 [Compound 11]
[4]; KS (bsNOS), Table 5
  Kd: 1.1 ± 0.1 µM

## CCN(CCc1cccc(F)c1)Cc1cccc(NC(=N)c2cccs2)c1 [Compound 15]
[4]; KS (bsNOS), Table 5
  Kd: 119 ± 25 µM

## Nc1ccc2cc(CCNCc3cccc(F)c3)ccc2n1 [Compound 16]
[4]; KS (bsNOS), Table 5
  Kd: 95 ± 20 µM

## Nc1ccc2cc(CNCCc3cccc(F)c3)ccc2n1 [Compound 17]
[4]; KS (bsNOS), Table 5
  Kd: 420 ± 130 µM

## Nc1ccc2ccc(CCNCc3cccc(F)c3)cc2n1 [Compound 18]
[4]; KS (bsNOS), Table 5
  Kd: 0.97 ± 0.04 µM

## CNCCN(C)c1cc(C#N)cc(CCc2cc(C)cc(N)n2)c1 [Compound 19c, 3-(2-(6-Amino-4-methylpyridin-2-yl)ethyl)-5-(methyl(2-(methylamino)ethyl)amino)benzonitrile]
[1]; Table 9, read-out: Ki iNOS
  Ki: 3.67 µM
[3]; Table 9, read-out: Ki eNOS
  Ki: 24.9 µM
[2]; Table 9, read-out: Ki Rat nNOS
  Ki: 24 nM
[5]; i.v. 2 mg/kg, brain
  AUClast: 789.07 ng·h/g
  CL: 21.18 mL/min/kg
  C0: 100.28 ng/g
[5]; i.v. 2 mg/kg, plasma
  CL: 184.16 mL/min/kg
  T1/2: 1.12 h
[5]; [8]
  clearance: 21 mL/min/kg
  half-life: 1490 min
[5]; male, BALB/c, mouse, iv, i.v. 2 mg/kg, brain
  Vd: 44 L/kg
[5]; [9]
  AUC(0-inf): 181 ng·h/mL
  AUC(0-t): 180 ng·h/mL
  Vd: 14.8 L/kg
[5]; male, BALB/c, mouse, iv, i.v. 2 mg/kg, plasma, read-out: C0
  C0: 472 ng/mL
[5]; [10]
  clearance: 184 mL/min/kg
  half-life: 66 min
[5]; male, BALB/c, mouse, po, p.o. 10 mg/kg, brain
  Cmax: 39.3 ng/g
[5]; male, BALB/c, mouse, po, p.o. 10 mg/kg, brain, read-out: Tmax
  Tmax: 240 min
[5]; [11]
  AUC(0-inf): 182 ng·h/mL
  AUC(0-t): 162 ng·h/mL
  Cmax: 50.8 ng/mL
[5]; male, BALB/c, mouse, po, p.o. 10 mg/kg, plasma, read-out: Tmax
  Tmax: 15 min
[5]; p.o. 10 mg/kg vs i.v. 2 mg/kg, AUClast used
  % F (oral bioavailability): 18%
[5]; p.o. 10 mg/kg, brain
  AUClast: 673.67 ng·h/g
[5]; p.o. 10 mg/kg, plasma
  Tmax: 15 min

## Nc1ccc2ccc(CNCCCc3cccc(F)c3)cc2n1 [Compound 21]
[4]; KS (bsNOS), Table 5
  Kd: 3.2 ± 0.1 µM

## CCNCCN(C)c1cc(C#N)cc(CCc2cc(C)cc(N)n2)c1 [Compound 21a]
[1]; Table 9, read-out: Ki iNOS
  Ki: 11.5 µM
[1]; [12]
  i/n selectivity: 178.0
[3]; Table 9, read-out: Ki eNOS
  Ki: 37.6 µM
[3]; [13]
  e/n selectivity: 583.7
[2]; Table 9, read-out: Ki Rat nNOS
  Ki: 64 nM

## Cc1cc(N)nc(CCc2cc(C#N)cc(N(C)CCNC(C)C)c2)c1 [Compound 21b]
[1]; Table 9, read-out: Ki iNOS
  Ki: 45.1 µM
[1]; [12]
  i/n selectivity: 361.5
[3]; Table 9, read-out: Ki eNOS
  Ki: 39.9 µM
[3]; [13]
  e/n selectivity: 320.1
[2]; Table 9, read-out: Ki Rat nNOS
  Ki: 125 nM

## Cc1cc(N)nc(CCc2cc(C#N)cc(N(C)CCNC3CC3)c2)c1 [Compound 21c]
[1]; Table 9, read-out: Ki iNOS
  Ki: 28 µM
[1]; [12]
  i/n selectivity: 246.6
[3]; Table 9, read-out: Ki eNOS
  Ki: 31.1 µM
[3]; [13]
  e/n selectivity: 274.0
[2]; Table 9, read-out: Ki Rat nNOS
  Ki: 114 nM

## Cc1cc(N)nc(CCc2cc(C#N)cc(N(C)CCc3cccc(F)c3)c2)c1 [Compound 21d]
[1]; Table 9, read-out: Ki iNOS
  Ki: 45.3 µM
[1]; [12]
  i/n selectivity: 33.7
[2]; Table 9, read-out: Ki Rat nNOS
  Ki: 1800 nM

## Cc1cc(N)nc(CCc2cc(C#N)cc(NCCc3cccc(F)c3)c2)c1 [Compound 22, 3-(2-(6-Amino-4-methylpyridin-2-yl)ethyl)-5-((3-fluorophenethyl)amino)benzonitrile]
[4]; KS (bsNOS), Table 5
  Kd: 62 ± 25 µM

## Cc1cc(N)nc(CCc2cc(F)cc(NCCN(C)C)c2)c1 [Compound 23a, N^1-(3-(2-(6-Amino-4-methylpyridin-2-yl)ethyl)-5-fluorophenyl)-N^2,N^2-dimethylethane-1,2-diamine]
[1]; Table 9, read-out: Ki iNOS
  Ki: 3.31 µM
[1]; [12]
  i/n selectivity: 47.3
[3]; Table 9, read-out: Ki eNOS
  Ki: 9.58 µM
[3]; [13]
  e/n selectivity: 136.9
[2]; Table 9, read-out: Ki Rat nNOS
  Ki: 70 nM

## CCNCCN(C)c1cc(F)cc(CCc2cc(C)cc(N)n2)c1 [Compound 23b, N^1-(3-(2-(6-Amino-4-methylpyridin-2-yl)ethyl)-5-fluorophenyl)-N^2-ethyl-N^1-methylethane-1,2-diamine]
[1]; Table 9, read-out: Ki iNOS
  Ki: 6.38 µM
[1]; [12]
  i/n selectivity: 199.4
[3]; Table 9, read-out: Ki eNOS
  Ki: 17.9 µM
[3]; [13]
  e/n selectivity: 558.4
[2]; Table 9, read-out: Ki Rat nNOS
  Ki: 32 nM

## Cc1cc(N)nc(CCc2cc(F)cc(N(C)CCNC3CC3)c2)c1 [Compound 23c, N^1-(3-(2-(6-Amino-4-methylpyridin-2-yl)ethyl)-5-fluorophenyl)-N^2-cyclopropyl-N^1-methylethane-1,2-diamine]
[1]; Table 9, read-out: Ki iNOS
  Ki: 10.9 µM
[1]; [12]
  i/n selectivity: 217.8
[3]; Table 9, read-out: Ki eNOS
  Ki: 6.21 µM
[3]; [13]
  e/n selectivity: 124.3
[2]; Table 9, read-out: Ki Rat nNOS
  Ki: 50 nM

## CCN(CCNC)c1cc(F)cc(CCc2cc(C)cc(N)n2)c1 [Compound 23d, N^1-(3-(2-(6-Amino-4-methylpyridin-2-yl)ethyl)-5-fluorophenyl)-N^1-ethyl-N^2-methylethane-1,2-diamine]
[1]; Table 9, read-out: Ki iNOS
  Ki: 5.04 µM
[1]; [12]
  i/n selectivity: 109.6
[3]; Table 9, read-out: Ki eNOS
  Ki: 4.29 µM
[3]; [13]
  e/n selectivity: 93.2
[2]; Table 9, read-out: Ki Rat nNOS
  Ki: 46 nM

## CNCCN(c1cc(F)cc(CCc2cc(C)cc(N)n2)c1)C1CC1 [Compound 23e, N^1-(3-(2-(6-amino-4-methylpyridin-2-yl)ethyl)-5-fluorophenyl)-N^1-cyclopropyl-N^2-methylethane-1,2-diamine]
[1]; Table 9, read-out: Ki iNOS
  Ki: 8.33 µM
[1]; [12]
  i/n selectivity: 148.7
[3]; Table 9, read-out: Ki eNOS
  Ki: 7.89 µM
[3]; [13]
  e/n selectivity: 140.9
[2]; Table 9, read-out: Ki Rat nNOS
  Ki: 56 nM

## Cc1cc(N)nc(CCc2cc(F)cc(NCc3cccc(Cl)c3)c2)c1 [Compound 23f, 6-(3-((3-Chlorobenzyl)amino)-5-fluorophenethyl)-4-methylpyridin-2-amine]
[1]; Table 9, read-out: Ki iNOS
  Ki: 9.56 µM
[1]; [12]
  i/n selectivity: 354.1
[3]; Table 9, read-out: Ki eNOS
  Ki: 7.08 µM
[3]; [13]
  e/n selectivity: 262.0
[2]; Table 9, read-out: Ki Rat nNOS
  Ki: 27 nM

## Cc1cc(N)nc(CCc2cc(F)cc(NCc3cccnc3)c2)c1 [Compound 23g, 6-(3-Fluoro-5-((pyridin-3-ylmethyl)amino)phenethyl)-4-methylpyridin-2-amine]
[1]; Table 9, read-out: Ki iNOS
  Ki: 11 µM
[1]; [12]
  i/n selectivity: 10.7
[3]; Table 9, read-out: Ki eNOS
  Ki: 10.3 µM
[3]; [13]
  e/n selectivity: 10.0
[2]; Table 9, read-out: Ki Rat nNOS
  Ki: 1030 nM

## Cc1cc(N)nc(CCc2cc(F)cc(N3CCNCC3)c2)c1 [Compound 23h, 6-(3-Fluoro-5-(piperazin-1-yl)phenethyl)-4-methylpyridin-2-amine]
[1]; Table 9, read-out: Ki iNOS
  Ki: 3.51 µM
[1]; [12]
  i/n selectivity: 60.2
[3]; Table 9, read-out: Ki eNOS
  Ki: 4.84 µM
[3]; [13]
  e/n selectivity: 82.8
[2]; Table 9, read-out: Ki Rat nNOS
  Ki: 58 nM

## Cc1cc(N)nc(CCc2cc(F)cc(NC3CCNCC3)c2)c1 [Compound 23i, 6-(3-Fluoro-5-(piperidin-4-ylamino)phenethyl)-4-methylpyridin-2-amine]
[1]; Table 9, read-out: Ki iNOS
  Ki: 13.5 µM
[1]; [12]
  i/n selectivity: 110.9
[3]; Table 9, read-out: Ki eNOS
  Ki: 4.89 µM
[3]; [13]
  e/n selectivity: 40.2
[2]; Table 9, read-out: Ki Rat nNOS
  Ki: 121 nM
